Source: patent US11840528B2 (Hoffmann-La Roche Inc., priority 2018, dated 2023)

How the values were obtained:
h-GABA-A α5β3γ2 [1] = biological target: T1, h-GABA-A α5β3γ2 (Homo sapiens, UniProt P18507+P31644); assay: Two-electrode voltage clamp electrophysiology in Xenopus laevis oocytes expressing GABAA receptors, modulation of GABA EC20 current; type: cell-based; set-up: host or cells: Xenopus laevis oocytes micro-injected with RNA transcripts of the subunits; settings: Table 1; for Efficacy (GABA) %: % modulation of GABA EC20 = 100*(Fold increase-1); for Fold increase h-GABA-A α5β3γ2 oocyte: test compound at approx. 30 fold its Ki, GABA at EC20
How it was run: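 Human α5β3γ2 GABAA receptors were expressed in Xenopus oocytes by RNA injection, with γ2 RNA 5–10-fold higher, and recorded 3–5 days later by two-electrode voltage clamp at −80 mV at room temperature. The test compound, at about 30× its Ki, was co-applied during a second GABA EC20 pulse. Efficacy is the extremum of the point-by-point ratio to the first response, expressed as 100*(Fold increase−1).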

h-GABA-A α5β3γ2 [2] = biological target: T1, h-GABA-A α5β3γ2; assay: [3H]flumazenil competition binding assay, membranes of HEK293 cells expressing GABAA receptors; settings: displacement of [3H]-Flumazenil 0.5 nM, HEK293 cells expressing human receptors, mean of two determinations; Table 1
How it was run: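 Membranes from HEK293 cells transiently expressing human α5β3γ2 GABAA receptors, in Krebs-tris buffer pH 7.5, competed against [3H]flumazenil for 1 hour at 4° C to equilibrium. Bound radioactivity collected on GF/C filters and counted by liquid scintillation; Ki values are means of two determinations.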

Row | Efficacy (GABA) % (h-GABA-A α5β3γ2 [1]) [%] | Fold increase h-GABA-A α5β3γ2 oocyte (h-GABA-A α5β3γ2 [1]) | Ki (h-GABA-A α5β3γ2 [2]) [nM] | Compound
1 | 117 | 2.17 | 19.4 | Cc1ccc(-c2noc(C)c2Cn2ncc(N3CC4(CCOCC4)C3)cc2=O)cn1 [Example 199, 2-((5-methyl-3-(6-methylpyridin-3-yl)isoxazol-4-yl)methyl)-5-(7-oxa-2-azaspiro[3.5]nonan-2-yl)pyridazin-3(2H)-one]
2 | 149 | 2.49 | 1.7 | Cc1ccc(-c2noc(C)c2Cn2ncc(N3CCC(c4ccnn4C)CC3)cc2=O)cn1 [Example 166, 2-[[5-methyl-3-(6-methyl-3-pyridyl)isoxazol-4-yl]methyl]-5-[4-(2-methylpyrazol-3-yl)-1-piperidyl]pyridazin-3-one]
3 | 120 | 2.2 | 35.2 | Cc1onc(-c2ccc(F)cc2)c1Cn1ncc(N2CCN(C(=O)C3(C)CC3)CC2)cc1=O [Example 15, 2-((3-(4-Fluorophenyl)-5-methylisoxazol-4-yl)methyl)-5-(4-(1-methylcyclopropanecarbonyl)piperazin-1-yl)pyridazin-3(2H)-one]
4 | 41 | 1.41 | 3.8 | COc1cc(-c2cnn(Cc3c(-c4ncc(C(F)(F)F)cn4)noc3C)c(=O)c2)ccn1 [Example 228, 5-(2-methoxypyridin-4-yl)-2-((5-methyl-3-(5-(trifluoromethyl)pyrimidin-2-yl)isoxazol-4-yl)methyl)pyridazin-3(2H)-one]
5 | 187 | 2.87 | 25.1 | Cc1ccc(-c2noc(C)c2Cn2ncc(N3CC(Oc4ccc(Cl)cn4)C3)cc2=O)cn1 [Example 130, 5-[3-[(5-chloro-2-pyridyl)oxy]azetidin-1-yl]-2-[[5-methyl-3-(6-methyl-3-pyridyl)isoxazol-4-yl]methyl]pyridazin-3-one]
6 | 76 | 1.76 | 43.1 | Cc1onc(-c2ccc(Cl)nc2)c1Cn1ncc(N2CC3(CCC(C(F)(F)F)CO3)C2)cc1=O (single isomer, unassigned) [Example 323]
7 | 60 | 1.6 | 2.2 | Cc1onc(-c2ncc(C(F)(F)F)cn2)c1Cn1ncc(N2CC(OC3CC3)C2)cc1=O [Example 249, 5-(3-cyclopropoxyazetidin-1-yl)-2-((5-methyl-3-(5-(trifluoromethyl)pyrimidin-2-yl)isoxazol-4-yl)methyl)pyridazin-3(2H)-one]
8 | 132 | 2.32 | 0.4 | Cc1ccc(-c2noc(C)c2Cn2ncc(N3CCNC4(CC4)C3)cc2=O)cn1 [Example 74, 5-(4,7-diazaspiro[2.5]octan-7-yl)-2-[[5-methyl-3-(6-methyl-3-pyridyl)isoxazol-4-yl]methyl]pyridazin-3-one]
9 | 170 | 2.7 | 12 | Cc1ccc(-c2noc(C)c2Cn2ncc(N3CC(Oc4ccnc(Cl)c4)C3)cc2=O)cn1 [Example 147, 5-[3-[(2-chloro-4-pyridyl)oxy]azetidin-1-yl]-2-[[5-methyl-3-(6-methyl-3-pyridyl)isoxazol-4-yl]methyl]pyridazin-3-one]
10 | 84 | 1.84 | 30.8 | Cc1ccc(-c2noc(C)c2Cn2ncc(-c3ccc(N(C)C)nc3)cc2=O)cn1 [Example 116, 5-[6-(dimethylamino)-3-pyridyl]-2-((5-methyl-3-(6-methyl-3-pyridyl)isoxazol-4-yl)methyl)pyridazin-3-one]
11 | 134 | 2.34 | 22.9 | COC1CN(c2cnn(Cc3c(-c4ccc(C)nc4)noc3C)c(=O)c2)C1 [Example 104, 5-(3-methoxyazetidin-1-yl)-2-[[5-methyl-3-(6-methyl-3-pyridyl)isoxazol-4-yl]methyl]pyridazin-3-one]
12 | 68 | 1.68 | 3.3 | Cc1onc(-c2ccc(Cl)cn2)c1Cn1ncc(N2CC(OCC3CC3)C2)cc1=O [Example 143, 2-((3-(5-Chloropyridin-2-yl)-5-methylisoxazol-4-yl)methyl)-5-(3-(cyclopropylmethoxy)azetidin-1-yl)pyridazin-3(2H)-one]
13 | 115 | 2.15 | 30.8 | Cc1ccc(-c2noc(C)c2Cn2ncc(N3CC4(CCCO4)C3)cc2=O)cn1 [Example 95, 2-[[5-methyl-3-(6-methyl-3-pyridyl)isoxazol-4-yl]methyl]-5-(5-oxa-2-azaspiro[3.4]octan-2-yl)pyridazin-3-one]
14 | 73 | 1.73 | 71.1 | Cc1onc(-c2ccc(Cl)nc2)c1Cn1ncc(N2CC3(C[C@H](C)CCO3)C2)cc1=O [Example 322, (R)-2-((3-(6-chloropyridin-3-yl)-5-methylisoxazol-4-yl)methyl)-5-(8-methyl-5-oxa-2-azaspiro[3.5]nonan-2-yl)pyridazin-3(2H)-one]
15 | 152 | 2.52 | 18.6 | Cc1ccc(-c2noc(C)c2Cn2ncc(N3CC(Oc4ccc(F)cc4)C3)cc2=O)cn1 [Example 123, 5-[3-(4-fluorophenoxy)azetidin-1-yl]-2-[[5-methyl-3-(6-methyl-3-pyridyl)isoxazol-4-yl]methyl]pyridazin-3-one]
16 | 68 | 1.68 | 2.2 | Cc1onc(-c2ccc(Cl)nc2)c1Cn1ncc(N2C[C@@H](O)[C@H]2C)cc1=O [Example 289, 2-((3-(6-chloropyridin-3-yl)-5-methylisoxazol-4-yl)methyl)-5-((2R,3R)-3-hydroxy-2-methylazetidin-1-yl)pyridazin-3(2H)-one]
17 | 143 | 2.43 | 26 | CCCn1cc(-c2cnn(Cc3c(-c4ccc(C)nc4)noc3C)c(=O)c2)cn1 [Example 210, 2-((5-methyl-3-(6-methyl-3-pyridyl)isoxazol-4-yl)methyl)-5-(1-propylpyrazol-4-yl)pyridazin-3-one]
18 | 106 | 2.06 | 0.6 | Cc1ccc(-c2noc(C)c2Cn2ncc(N(C)CC(C)(C)O)cc2=O)cn1 [Example 70, 5-((2-hydroxy-2-methylpropyl)(methyl)amino)-2-((5-methyl-3-(6-methylpyridin-3-yl)isoxazol-4-yl)methyl)pyridazin-3(2H)-one]
19 | 114 | 2.14 | 3.8 | Cc1onc(-c2ccc(F)cc2)c1Cn1ncc(N2C[C@@H](C)O[C@@H](C)C2)cc1=O [Example 12, 5-(cis-2,6-Dimethylmorpholino)-2-((3-(4-fluorophenyl)-5-methylisoxazol-4-yl)methyl)pyridazin-3(2H)-one]
20 | 83 | 1.83 | 16.6 | Cc1onc(-c2ccc(Cl)nc2)c1Cn1ncc(N2CC(OC(F)(F)F)C2)cc1=O [Example 251, 2-((3-(6-chloropyridin-3-yl)-5-methylisoxazol-4-yl)methyl)-5-(3-(trifluoromethoxy)azetidin-1-yl)pyridazin-3(2H)-one]
21 | 134 | 2.34 | 18.1 | Cc1ccc(-c2noc(C)c2Cn2ncc(N3CC(C#N)C3)cc2=O)cn1 [Example 85, 1-[1-[[5-methyl-3-(6-methyl-3-pyridyl)isoxazol-4-yl]methyl]-6-oxo-pyridazin-4-yl]azetidine-3-carbonitrile]
22 | 190 | 2.9 | 41.4 | Cc1onc(-c2ccc(Cl)nc2)c1Cn1ncc(N2CCC3(CCCCO3)CC2)cc1=O [Example 333, 2-[[3-(6-chloro-3-pyridyl)-5-methyl-isoxazol-4-yl]methyl]-5-(1-oxa-9-azaspiro[5.5]undecan-9-yl)pyridazin-3-one]
23 | 226 | 3.26 | 4.1 | Cc1ccc(-c2noc(C)c2Cn2ncc(N3CC(O)(C(F)(F)F)C3)cc2=O)cn1 [Example 117, 5-(3-hydroxy-3-(trifluoromethyl)azetidin-1-yl)-2-((5-methyl-3-(6-methylpyridin-3-yl)isoxazol-4-yl)methyl)pyridazin-3(2H)-one]

Row | Compound | Efficacy (GABA) % (h-GABA-A α5β3γ2 [1]) [%] | Fold increase h-GABA-A α5β3γ2 oocyte (h-GABA-A α5β3γ2 [1]) | Ki (h-GABA-A α5β3γ2 [2]) [nM]
24 | Cc1ccc(-c2noc(C)c2Cn2ncc(N3CC[C@@H](OC(C)(C)C)C3)cc2=O)nn1 [Example 261, 5-[(3R)-3-tert-butoxypyrrolidin-1-yl]-2-[[5-methyl-3-(6-methylpyridazin-3-yl)isoxazol-4-yl]methyl]pyridazin-3-one] | 77 | 1.77 | 3.6
25 | Cc1ccc(-c2noc(C)c2Cn2ncc(N3CC[C@@H](OC(C)(C)C)C3)cc2=O)cn1 [Example 90, 5-[(3R)-3-tert-butoxypyrrolidin-1-yl]-2-[[5-methyl-3-(6-methyl-3-pyridyl)isoxazol-4-yl]methyl]pyridazin-3-one] | 109 | 2.09 | 24.8
